{"source": "patent US20020006915A1", "about": "“Use of COX-2 inhibitors to treat sepsis, complications thereof, and EP receptor modulation” (priority 2000, published 2002)", "key": {"[1]": {"system": "LPS stimulated splenic macrophages", "assay": "Mediator production (PGE2, IL-6, TNF-α, NO) by stimulated splenic macrophages 7 days after injury, 3 in vivo doses of NS-398 within 24 h", "design": "species or system BALB/c mice", "method": "Vehicle mice were injected with a 4% DMSO solution.\nSpleens were collected aseptically and placed in separate petri dishes containing cold (4° C.) Hanks Balanced Salt Solution without calcium and magnesium (Gibco BRL, Life Technologies Inc, Grand Island, N.Y.). Splenocytes were isolated by gentle mechanical disruption of the spleen with filtration through a nylon mesh (Spectrum, Laguna Hills, Calif.). The suspension was centrifuged for 7 minutes, at 500 g and 4° C. After resuspension, erythrocytes were lysed with an ammonium chloride solution for 4 minutes and the lysate was centrifuged as previously described. The remaining pellet was resuspended in complete RPMI-1640 (Gibco BRL, Life Technologies Inc), containing 1% antibiotic/antimycotic solution and 10% heat-inactivated fetal bovine serum (Gibco BRL, Life Technologies Inc), counted and diluted to a final cell concentration of 5×10^6 cells/ml and plated. After allowing macrophages to adhere for 2 hours, the remaining cells were suctioned off and macrophages were incubated with 10 ng/ml LPS 055:B5 (Sigma, St. Louis, Mo.) for PGE2, IL-6 and TNFα determination, or (10 ng/ml LPS+100 U/ml recombinant mouse IFN-γ (Pharmingen, San Diego, Calif.) for NO2^− determination. Cells were incubated at 37° C. in a 5% CO2 atmosphere, and supernatants harvested at 24 hours and frozen at −70° C. for determination of prostaglandin, cytokine and NO production.\nNO2^− was measured indirectly by determination of NO2^− concentration using the Greiss reagent system (Promega, Madison, Wis.). The BCA protein assay (Pierce, Rockford, Ill.) was used to quantify protein and all measurements were normalized to protein content per well.\nBalb/c mice (n=8/group) were given 3 intraperitoneal injections of 10 mg/kg NS398; immediately following injury, at 12 and 24 hours after sham injury or trauma (femur fracture and 40% blood volume hemorrhage). Sham+placebo (C); sham+NS398 (CN); trauma+placebo (T); or trauma+NS398 (TN) groups were studied. On day 7 after injury, mice were sacrificed and splenic macrophages evaluated for cytokine production and expression of COX-2 mRNA. In a separate study, mice (n=10-12/group) were treated in an identical fashion. After 7 days, cecal ligation and puncture was performed and animals followed for survival."}, "COX-2": {"system": "COX-2", "assay_type": "cell-based, human", "protocol": "Isolated PBMC's from various groups were incubated for 18 hours at which time all groups were treated with 10 ng/mL lipopolysaccharaide (LPS) 055:B5 (Sigma, St. Louis, Mo.) for 6 hours RT-PCR samples were run in a blinded fashion. Extraction of mRNA was with an RNA extraction kit (Qiagen). Total mRNA (1 μg) was reverse transcribed in an RT mastermix (50 mM KCl, 10 mM tris-HCl, 5 mM MgCl2, 1 mM dNTP, 2.5 mM oligo d(T), 50 units of RT, 20 units of RNAse inhibitor, and nuclease free water; all reagents from Perkin-Elmer, Foster City, Calif.) with an initial 10 minute incubation at room temperature and then 42° C. for 10 minutes. […] The cDNA was run on a 1% agarose gel with 3 μL of ethidium bromide (10 mg/mL solution) and bands were visualized under UV transillumination and recorded in an image acquisition processing and analysis program (Eagle Eye 2, Stratagene).\nNS-398 (N-[2-(cyclohexyloxy)-4-nitrophenyl]-methanesulfonamide) was obtained from Cayman Chemical (Ann Arbor, Mich.) and prepared in DMSO at a concentration of 1 mM. Serial dilutions were made to co-culture cells with a final concentration of 10 mM NS-398 in a 0.1% DMSO. […]\nTo further evaluate the expression of COX-2, samples of LPS stimulated PBMC's were evaluated from control and injured subjects as well as samples co-incubated with 10 μM NS-398."}, "COX-2 mRNA": {"system": "COX-2 mRNA", "assay": "COX-2 mRNA in splenic macrophages by RT-PCR (NS-398 over 7 days)", "assay_type": "in vivo, BALB/c mice", "details": "trauma + NS-398 over 7 days", "method": "Isolated splenic macrophages were treated with LPS (10 ng/mL) for 6 hours. Extraction of mRNA was done with an RNA extraction kit (Qiagen, Inc.)."}, "[2]": {"system": "LPS stimulated human PBMC's", "assay": "PGE2, LTB4 and TNF-α production from LPS stimulated PBMC's co-incubated with NS-398", "assay_type": "cell-based", "method": "The study included 10 patients sustaining either long-bone fracture or ≧15% total body surface burn and 10 control subjects (protocol approved by the Weill Medical College of Cornell University Internal Research Board). Blood samples were obtained within 12 hours of fracture or burn injury. Immune compromised patients including those with cancer, collagen-vascular diseases, HIV or any recent history of steroid or NSAID drug use were excluded from this study. Each patient sample was run simultaneously with a control sample.\nPeripheral venous blood samples were collected into two heparin-EDTA tubes and placed on ice. 6 mL of Histopaque (Sigma Chemical Co., St. Louis, Mo.) was layered into a conical 15 mL tube and 6 mL of undiluted whole blood was gently layered over the top. Tubes were then centrifuged at 1000 rpm for 30 minutes at room temperature. A sterile pasteur pipet was used to gently collect the layer of PBMC's which were then transferred to a new 15 mL tube. Samples were washed twice with 10 mL Ca^+2 and Mg^+2-free Hanks Buffered Salt Solution (Gibco BRL-Life Technologies, Grand Island, N.Y.) and centrifuged at 1100 rpm for 10 minutes. The supernatant was discarded and the pellet resuspended in complete RPMI-1640 (Gibco BRL-Life Technologies, Grand Island, N.Y.) with 10% heat inactivated fetal bovine serum (Gibco BRL-Life Technologies, Grand Island, N.Y.) and 1% antibiotic/antimycotic solution. Cells were then adjusted to a final concentration of 1×10^6 cells/mL and plated. Cells were incubated at 37° C. in a 5% CO2 atmosphere with supernatants harvested at 24 hours and frozen at −70° C. for determination of prostaglandin and cytokine production.\nSerial dilutions were made to co-culture cells with a final concentration of […] NS-398 in a 0.1% DMSO. Control and trauma groups were co-cultured with 0.1% DMSO vehicle for comparisons with NS-398 treated groups."}, "NF-κB": {"system": "NF-κB", "assay": "Electrophoretic mobility shift assay of nuclear NF-κB in splenic macrophages", "assay_type": "in vivo, BALB/c mice", "details": "NS-398 treatment after trauma, over 7 days", "method": "NF-κB gel shift oligonucleotide 5′ AGTTGAGGGGACTTTCCCAGGC 3′ (Santa Cruz Laboratories, Santa Cruz, Calif.) was end labeled with (^32P)γATP using polynucleotide kinase T4 (Gibco BRL, Grand Island, N.Y.). End labeled probe was purified from unincorporated (^32P)-γATP using a purification column (Bio-Rad Laboratories) and recovered in tris-EDTA buffer. Samples consisted of adherent macrophages collected after 45 minutes stimulation with 10 ng/mL LPS. Adherent cells were scraped into 1 mL of cold HANKS balanced salt solution. The cell suspension was pelleted after centrifugation in a microcentrifuge for 10 seconds and resuspended in 400 μl cold Buffer A (10 mM HEPES-KOH pH 7.9 at 4° C., 1.5 mM MgCl2, 10 mM KCl, 0.5 mM dithiothreitol, 0.2 mM PMSF) by agitation of the tube. The cells were allowed to swell on ice for 10 minutes, and then vortexed for 10 seconds. Samples were centrifuged for 10 seconds and the supernatant fraction was saved at −70° C. for IκB analysis. The pellet was resuspended in 20-100 μl of cold buffer C (20 mM HEPES-KOH pH 7.9, 25% glycerol, 420 mM NaCl, 1.5 mM MgCl2. 0.2 mM EDTA, 0.5 mM dithiothreitol 0.2 mM PMSF) and incubated on ice for 20 minutes. […] Samples were subjected to electrophoretic separation on a non denaturing 5% poly-acrylamide gel at 30 mA using Tris borate EDTA for 45 minutes and analyzed by exposure to radiographic film (Kodak, Rochester, N.Y.)."}, "[3]": {"details": "T + NS, 3 i.p. injections of 10 mg/kg, splenic macrophages day 7"}}}
{"smiles": "CS(=O)(=O)Nc1ccc([N+](=O)[O-])cc1OC1CCCCC1", "note": "[NS-398, N-(2-cyclohexyloxy-4-nitrophenyl)methanesulfonamide]", "values": [{"measurement": "IL-6", "setting": "[1]; [3]", "value": "5.4 ± 0.9", "unit": "pg/μg protein"}, {"measurement": "NO", "setting": "[1]; [3]", "value": "8 ± 4", "unit": "nmol/μgprot"}, {"measurement": "TNF-α", "setting": "[1]; [3]", "value": "2.0 ± 0.5"}, {"measurement": "PGE2", "setting": "[1]; T + NS, 3 i.p. injections of 10 mg/kg, splenic macrophages day 7, n=8", "value": "71 ± 14"}, {"measurement": "PGE2 production from LPS stimulated splenic macrophages", "setting": "[1]; control mice treated with NS-398 (CN), 7 days", "value": "87 ± 10", "unit": "pg/µg protein"}, {"measurement": "IL-6 level, splenic macrophages", "setting": "[1]; injured mice + NS-398, 7 days", "value": "5.4 ± 0.3", "unit": "pg/µg"}, {"measurement": "nitrite levels, LPS+IFN-γ stimulated splenic macrophages", "setting": "[1]; injured mice + NS-398, 7 days", "value": "0.007 ± 0.004", "unit": "nmol/µg"}, {"measurement": "TNF-α production, splenic macrophages", "setting": "[1]; trauma + NS-398 (TN), 7 days following trauma", "value": "2.0 ± 0.2", "unit": "pg/µL"}, {"measurement": "PGE2 production from LPS stimulated splenic macrophages", "setting": "[1]; trauma+NS-398 mice, 7 days following injury, treatment for 24 hours post-injury, ±SEM", "value": "71 ± 5", "unit": "pg/µg"}, {"measurement": "COX-2 expression", "setting": "COX-2", "value": "reduced COX-2 expression to levels similar to that expressed by control cells"}, {"measurement": "COX-2 mRNA levels", "setting": "COX-2 mRNA", "value": "decreased this induction"}, {"measurement": "TNF-α production", "setting": "[2]; PBMC's after injury, co-culture with NS-398, P<0.05", "value": "significantly decreased production"}, {"measurement": "PGE2 production", "setting": "[2]; PBMC's of injured patients, co-culture with 10μM NS-398, T vs TN P<0.001", "value": "significantly reduced the production of PGE2"}, {"measurement": "LTB4 production", "setting": "[2]; control cells, co-culture with NS-398, P<0.05", "value": "significant increase in the production of LTB4"}, {"measurement": "LTB4 production", "setting": "[2]; trauma cells, co-culture with NS-398, P<0.004", "value": "significant increase in the production of LTB4"}, {"measurement": "NF-κB activation", "setting": "NF-κB", "value": "a decrease in NF-κB activation"}]}
